Measurements reported in US20220135678A1, “METHODS AND COMPOSITIONS TO IMPROVE THE SAFETY AND EFFICACY OF CELLULAR THERAPIES” (University of Southern California, priority 2019, published 2022).
Each block holds one molecule with its values, some of them ahead of it.

Columns and labels:
[1] = target: CD19 (on RAJI cells) (UniProt P15391); assay: cell-based or functional assay
[2] = Patient with cytokine release syndrome and neurological complications after haploidentical stem cell transplant; type: in vivo, human
Protocol: A patient with myelofibroris receives haploidentical peripheral blood stem cell transplant using their child as a donor. The patient receives reduced intensity conditioning with Melphalan (100 mg/m2 on day −6), Fludarabine (25 mg/m2×4 on days −5 to −2) and total body irradiation (TBI) of 200 cGy on day −1. Following infusion of haploidentical stem cells on Day 0, the patient receives post-transplant Cyclophosphamide 50 mg/kg×2 on days+3 and +4 and intravenous hydration with normal saline at rate of 250 ml/h for 24 hours after the completion of cyclophosphamide.

[3] = system: NALM6 (B cell acute lymphocytic leukemia cells); assay: Infection of NALM6 cells by lentivirus encoding a non-FMC63 CD19 CAR; type: cell-based; conditions: CAR scFV derived from an antibody other than FMC63
Protocol: The experiment in the preceding example is repeated using a lentiviral vector encoding a CD19 CAR (SEQ ID NO: 11920) comprising a scFV derived from an antibody other than FMC63 as its antigen-binding domain. The CAR is cloned in the pCCLc-MNDU3-WPRE lentiviral vector (SEQ ID NO: 3) and the resulting vector is packaged using VSVG as described in the preceding example. […] In contrast, incubation with Rituximab, a CD20 antibody, had no effect.

[4] = target: CD19 (on RAJI cells) (UniProt P15391); assay: cell surface staining of control RAJI cells with FMC63 antibody, flow cytometry
[5] = system: CD33 on hematopoietic stem cells and progenitor cells; assay: HSPC expressing AMR-dTAG or AMR-ShieldTag targeting CD33, in vitro; type: cell-based
[6] = system: Molm14 AML leukemia cells; assay: AMR-dTAG or AMR-ShieldTag HSPC transplanted into NSG mice with Molm14 cells, CD33 CAR-T; type: in vivo
From the text: (§1) The transduced cells are also transplanted into NSG mice along with Molm14 AML leukemia cells.
as §1

[7] = system: RAJI cells; assay: Killing of AMR-expressing RAJI cells by CD19-CAR-T cells or Blinatumomab; type: cell-based; conditions: exposure to dTAG-13
Protocol: T cells mediated induction of lysis of target cells was assayed by increase of luciferase activity as measured by BioTek synergy plate reader by directly injecting 0.5×CTZ assay buffer containing native coeloentrazine (Nanaolight).

[8] = system: CD19 on RAJI (CD19+) cells; assay: CD19 surface expression on transduced RAJI cells, flow cytometry with PE-conjugated FMC63 antibody (antigen masking); type: cell-based
From the text: A panel of CARs targeting CD19 were generated using antigen binding domains derived from FMC63 (SEQ ID NO: 205), hu-mROO5-1 (SEQ ID NO: 211) and CD19-MM (SEQ ID NO: 209) scFVs respectively. […] The constructs also co-expressed a puromycin resistance gene (PAC). The lentiviral vectors encoding the different CAR constructs were used to infect RAJI (CD19+) cells. The cells were selected with puromycin. Flow cytometry with PE-conjugated FMC63 antibody was used to detect the expression of CD19 on the surface of the CAR-expressing cells.
In another exemplary experiment, the experiment is repeated with lentiviral vectors encoding FMC63- or hum-mROO5-1-based cTCR, Ab-TCR, TFPαβ and TFPγδ.
RAJI cells were infected with the following lentiviral vectors encoding antigen masking receptors targeting CD19 and carrying protein degradation motifs FKBP12. […] RAJI cells were selected with puromycin and examined for CD19 expression by cell surface staining with FMC63 antibody. […] Subsequently, the cells were treated with dTAG-13 (100 nM) for 24-72 h to induce degradation of the AMR.

Sequence of UniProt P15391 (P15391 20-556 limits assumed): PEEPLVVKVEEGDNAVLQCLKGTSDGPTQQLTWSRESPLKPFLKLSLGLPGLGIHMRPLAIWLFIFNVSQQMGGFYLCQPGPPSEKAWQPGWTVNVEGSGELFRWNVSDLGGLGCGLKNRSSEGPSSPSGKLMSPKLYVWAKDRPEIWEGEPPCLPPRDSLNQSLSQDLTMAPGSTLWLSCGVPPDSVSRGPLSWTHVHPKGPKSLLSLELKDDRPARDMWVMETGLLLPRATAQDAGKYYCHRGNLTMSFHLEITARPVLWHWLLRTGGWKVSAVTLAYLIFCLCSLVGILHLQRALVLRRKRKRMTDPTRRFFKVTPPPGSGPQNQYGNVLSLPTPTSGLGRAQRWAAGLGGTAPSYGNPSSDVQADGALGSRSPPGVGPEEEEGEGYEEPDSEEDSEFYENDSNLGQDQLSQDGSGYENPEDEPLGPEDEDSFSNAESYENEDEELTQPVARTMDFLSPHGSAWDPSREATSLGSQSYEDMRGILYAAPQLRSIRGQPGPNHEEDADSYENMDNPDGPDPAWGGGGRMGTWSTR

% EGFP + RAJI Cells (infection with CD19 CAR lentivirus after incubation with Control IgG-PE) [1]: 29.6%
% EGFP + RAJI Cells (infection with CD19 CAR lentivirus after incubation with control IgG) [1]: 43.3%
% EGFP + RAJI Cells (infection with the negative control MSLN-237-HL mesothelin CAR lentivirus after incubation with Control IgG-PE) [1]: 20.4%
Molecule: isotype control mouse IgG (antibody)

Molecule: Tocilizumab: administered 600 mg i.v. for cytokine release syndrome
blood pressure ([2]; 600 mg i.v. on day 5 after transplantation, patient with CRS after haploidentical stem cell transplant): stabilization of blood pressure
neurological / mental status ([2]; after Tocilizumab 600 mg i.v. on day 5 after transplantation): continues to have neurological deterioration

Molecule: Rituximab: a CD20 antibody
infection of NALM6 by the CD19 CAR (SEQ ID NO: 11920) [3]: no effect

% of control RAJI cells stained for CD19 by FMC63 antibody [4]: 99.2%
Molecule: FMC63-PE mouse monoclonal antibody

Molecule: CC[C@H](C(=O)N1CCCC[C@H]1C(=O)O[C@H](CCc1ccc(OC)c(OC)c1)c1cccc(OCCN2CCOCC2)c1)c1cc(OC)c(OC)c(OC)c1 [Shield-1]
AMR fusion protein after ligand treatment is stopped, in vitro ([5]; Shield-1 treatment stopped): degradation of AMR fusion protein
CD33 AMR-ShieldTag fusion protein in animals after ligand treatment is stopped ([6]; Shield-1 treatment stopped): degradation of the CD33 AMR-ShieldTag fusion protein

Molecule: CC[C@H](C(=O)N1CCCC[C@H]1C(=O)O[C@H](CCc1ccc(OC)c(OC)c1)c1ccccc1OCC(=O)NCCCCCCOc1cccc2c1C(=O)N(C1CCC(=O)NC1=O)C2=O)c1cc(OC)c(OC)c(OC)c1 (some centres unmarked) [dTAG-13]
AMR fusion protein after ligand treatment in vitro ([5]; 100 nM): degradation of AMR fusion protein
killing of AMR-expressing RAJI cells by CD19-CAR-T cells or Blinatumomab upon exposure to ligand [7]: sensitized
AMR-dTAG fusion protein in animals after ligand ([6]; 25 mg/kg daily): degradation of the AMR-dTAG fusion protein
induction of CD19 expression with increasing concentration ([8]; 1 pM to 100 nM): dose dependent induction
CD19 expression on AMR-expressing RAJI cells after ligand ([8]; 100 nM for 24-72 h, FMC63-PE staining, before treatment […]): 68.98%
